Data reported in patent US20250170114A1, “METHODS OF TREATMENT USING T-TYPE CALCIUM CHANNEL MODULATORS” (Praxis Precision Medicines, Inc., priority 2022, published 2025).
“Also recorded” adds a separate entry of the source.

Tests used:
[1] = tested on: Harmaline induced tremor activity in male Sprague Dawley (SD) rats; test: Harmaline-induced tremor activity measured with a piezoelectric plate; format: in vivo, rat; conditions: harmaline 30 mg/kg i.p., 1 mg/kg p.o. alone
Description: This study sought to evaluate the effects of the HCl salt of the compound of Formula (I) (the “study drug”) administered alone (1 mg/kg, p.o.) or in combination with propranolol (1 and 3 mg/kg, i.p. at 20 min prior) in Harmaline (10 or 30 mg/kg, i.p.) induced tremor activity measured with a piezoelectric plate in male Sprague Dawley (SD) rats.
Rats were fed ad lib and kept at a 12:12 light-dark cycle throughout the study. There were N=15 in each group. Harmaline and propranolol were each formulated with saline using a volume of 5 ml/kg bodyweight. Vehicle for the study drug (1 mg/kg) was 0.5% methyl cellulose/0.1% Tween-80 in water.
1) Rats were allowed to acclimate in standard laboratory animal facility conditions for at least 5-7 days prior to use. 2) Rat was put in a Plexiglas chamber with a piezoelectric plate attached at the bottom to transduce tremor behavior into electronic signal. […] 3) One day prior to the first testing day, a naive rat was put in the testing chamber to confirm that the spontaneous activity baseline was within the range of 3000-10000 uv, as this sensitivity level generally allows all the tremor signal to be detected with the system. […] 11) Post-harmaline effect was measured for 20 min (10-30 min). […]

participants with ET = test: Phase 2 trial: Clinical Global Impression-Improvement (CGI-I); format: in vivo, human
Text: The Clinical Global Impression-Improvement (CGI-I) (Guy 1976) assesses the clinician's impression of the participant's functioning prior to and after initiating study medication. The clinician should use his/her total clinical experience with this patient population and rate the current severity of the participant's essential tremor symptoms on a 7-point scale from 1 (Normal, not at all ill) to 7 (Among the most extremely ill patients). Accordingly, in some embodiments, the methods of the present invention result in a decrease in CGI-I score compared to baseline, e.g., prior to treatment. Key safety measures included clinical laboratory evaluations, 12-lead ECG, C-SSRS, and vital signs. Key efficacy assessments included the TETRAS Performance subscale, TETRAS Upper Limb using accelerometry, CGI, and PGI-C. Blood samples were obtained for the determination of study drug plasma concentrations using a validated bioanalytical method and may also be used for method development and/or metabolite characterization. In both phases, key safety measures included clinical laboratory evaluations, 12-lead ECG, C-SSRS, and vital signs. Key efficacy assessments included the TETRAS Performance subscale, TETRAS Upper Limb using accelerometry, CGI, PGI-C, TETRAS ADL Subscale, QUEST, BDI-II, and BAI. Blood samples were obtained for the determination of study drug and metabolite plasma concentrations.

[2] = Plasma and brain tissue concentrations in rats after harmaline testing; format: in vivo, rat; conditions: collected immediately after harmaline testing
Description: Plasma and brain tissue sample collection (at 90 min post dosing of study compound) was evaluated in […]. N=15 in each group. Plasma and brain tissue samples were collected immediately after harmaline testing. Plasma sample number: 5×15=75. Brain tissue sample number: 5×15=75.

[3] = tested on: harmaline-induced tremor in male SD rats; test: Tremor assessment (tremor score 0-4) with harmaline in SD rats; format: in vivo, rat; conditions: harmaline 30 mg/kg, doses of 1, 3 and 10 mg/kg, listed as compound of Formula (I)
Text: Each of six groups of male SD rats were subjected to a tremor assessment, followed by three ADL-like measures including open field test, rotarod test, and wire grip test after receiving doses of either vehicle, Formula (I), or propranolol, followed by either saline or harmaline, as outlined below in Table 22 below. Twenty minutes after administration of harmaline or saline, the rats were subjected to a tremor assessment using the score criteria outlined in the table below.

CC(C)(C)NC(=O)CN1CCC(CNC(=O)c2cc(F)cc(Cl)c2)CC1.Cl [Study drug]
harmaline-induced tremor (tremor power in the 8-13 Hz and 6-15 Hz bands) [1]: significantly reduces
CGI-I Score 5 minimally worse (participants with ET; Part B OLT (FAS), Day 7, n = 12): 1 n (%)
CGI-I Score 5 minimally worse (participants with ET; Part B RWD (RWAS), Day 70, study drug group, n = 5, vs randomization baseline): 1 n (%)
plasma and brain concentrations [2]: consistent with those measured in previous studies
average tremor score vs vehicle and harmaline only [3]: significantly reduced; also recorded: significant inhibition
